Test: in vitro
Details: human, hela cells, % viability

| SMILES | viability at 28.5 h, 10 µM |
| --- | --- |
| CN(C)Cc1c(O)ccc2occ(C(O)c3ccccc3)c12 (centres unmarked) [CBK261313] | 104% |
| CC(=O)SCCC(=O)N1C(C)CCCC1C(=O)O (centres unmarked) [CBK261315] | 93.1% |
| O=C(Nc1cccc2cccnc12)c1ccc(Cl)c(Cl)c1 [CBK261318] | 91.5% |
| COc1cccc(NC(=O)CCCC(=O)O)c1 [CBK261324] | 98.1% |
| O=C(O)CCC(=O)Nc1ccccc1C(=O)O [CBK261325] | 91.1% |
| O=C(O)CN(CC(=O)O)c1ccccc1 [CBK261326] | 90.7% |
| Cc1ccc(NC(=O)c2cc(C(=O)Nc3ccc(C)c(C)c3)cc(N3C(=O)c4ccccc4C3=O)c2)cc1C [CBK261328] | 93.8% |
| CC(C)(C)C(=O)Nc1ccc(C(=O)Nc2cccc(C(=O)O)c2)cc1 [CBK261329] | 94.8% |
| O=C(O)CCC(=O)Nc1ccc(-c2nc3ccccc3o2)cc1 [CBK261330] | 98% |
| O=C(O)c1ccc2c(c1)C(=O)N(c1ccc3c(c1)Cc1cc(N4C(=O)c5ccc(C(=O)O)cc5C4=O)ccc1-3)C2=O [CBK261333] | 90.5% |
| O=C(Nc1ccc(O)cc1)c1ccc2c(c1)C(=O)N(c1cccc(N3C(=O)c4ccc(C(=O)Nc5ccc(O)cc5)cc4C3=O)n1)C2=O [CBK261334] | 102% |
| O=C1c2ccc(S(=O)(=O)c3ccc4c(c3)C(=O)N(c3nccs3)C4=O)cc2C(=O)N1c1nccs1 [CBK261335] | 105% |
| O=C(O)c1cc(C(=O)O)cc(N2C(=O)c3ccc(S(=O)(=O)c4ccc5c(c4)C(=O)N(c4cc(C(=O)O)cc(C(=O)O)c4)C5=O)cc3C2=O)c1 [CBK261336] | 100% |
| CC(=O)NCC(CN1CCOCC1)([N+](=O)[O-])[N+](=O)[O-] [CBK261337] | 88.2% |
| O=C(NCC(CN1CCOCC1)([N+](=O)[O-])[N+](=O)[O-])c1ccccc1 [CBK261339] | 100% |
| O=C1C2(Cc3ccccc3)CN3CN(C2)CC1(Cc1ccccc1)C3 [CBK261341] | 89.9% |
| CCOC(=O)NC(Nn1cnnc1)(C(F)(F)F)C(F)(F)F [CBK261344] | 117% |
| COC(=O)CCC(=O)Nc1cccc([N+](=O)[O-])c1 [CBK261345] | 95.4% |
| COc1cc(/C=N/NC(=O)c2ccc([N+](=O)[O-])cc2)ccc1OC(C)=O [CBK261348] | 112% |
| COC(=O)CCC(=O)Nc1ccc(S(N)(=O)=O)cc1 [CBK261351] | 88.1% |
| O=C(O)CCC(=O)NNC(=O)c1ccc(O)cc1 [CBK261353] | 105% |

| SMILES | viability at 28.5 h, 10 µM |
| --- | --- |
| CCCOc1ccc(C(N)CC(=O)O)cc1 (centres unmarked) [CBK261360] | 93.5% |
| CCOc1ccc(C(C)(N)C(=O)O)cc1 (centres unmarked) [CBK261362] | 121% |
| CCOc1ccc(C(CC(=O)O)C(=O)O)cc1 (centres unmarked) [CBK261363] | 96.7% |
| O=S(=O)(c1ccc(-c2ccc(S(=O)(=O)N3CCOCC3)cc2)cc1)N1CCOCC1 [CBK261366] | 103% |
| O=S(=O)(c1ccc(Cl)c(S(=O)(=O)N2CCOCC2)c1)c1ccc(Cl)c(S(=O)(=O)N2CCOCC2)c1 [CBK261369] | 112% |
| C/C(CCS(=O)(=O)c1ccc(Br)cc1)=N\NC(N)=S [CBK261370] | 102% |
| O=C(O)CC1S/C(=N/N=C/c2ccco2)NC1=O (centres unmarked) [CBK261371] | 93.7% |
| O=C(N/N=C/C=C/c1ccc([N+](=O)[O-])cc1)C(O)c1ccccc1 (centres unmarked) [CBK261373] | 81.5% |
| COc1ccc(OCC(=O)N/N=C/c2ccc([N+](=O)[O-])s2)c(I)c1 [CBK261374] | 93.1% |
| O=C(N/N=C\c1cccc2ccccc12)c1ccc(CO)nc1 [CBK261377] | 104% |
| C1CN(c2nc(N3CCOCC3)nc(N3CCOCC3)n2)CCN1 [CBK261380] | 84.9% |
| CC1=C(C(=O)Nc2ccccc2)C(c2cccs2)C(C#N)=C(SCC(=O)c2ccc(Br)cc2)N1 (centres unmarked) [CBK261384] | 104% |
| O=C(/C=C\c1ccco1)Oc1ccc(/C=N\NC(=O)c2cncc(Br)c2)cc1 [CBK261385] | 83.2% |
| CCOc1cc(/C=N/NC(=O)c2cncc(Br)c2)c(Br)c(Br)c1O [CBK261386] | 86.3% |
| COc1ccccc1/C=N/C12CN3CN(CN(C3)C1)C2 [CBK261387] | 93% |
| C=C(C)C(=O)OCCOC(=O)c1cc(N)cc(N)c1 [CBK261389] | 101% |
| O=C1c2ccc3c4c(ccc(c24)C(=O)N1c1ccncc1)C(=O)N(c1ccncc1)C3=O [CBK261390] | 95.4% |
| CC(C)(C)C(=O)Nc1ccc(-c2ccc(NC(=O)C(C)(C)C)c(C(=O)O)c2)cc1C(=O)O [CBK261392] | 108% |
| CC(C)(C)C(=O)Nc1ccc(Cc2ccc(NC(=O)C(C)(C)C)c(C(=O)O)c2)cc1C(=O)O [CBK261393] | 104% |
| O=C(Nc1ccc(Br)cc1C(=O)O)c1cccc(C(=O)Nc2ccc(Br)cc2C(=O)O)c1 [CBK261395] | 90.5% |
| O=C1c2ccc(Oc3ccc4c(c3)C(=O)N(c3ccncc3)C4=O)cc2C(=O)N1c1ccncc1 [CBK261399] | 96.5% |

| SMILES | viability at 28.5 h, 10 µM |
| --- | --- |
| O=C(O)c1ccc(N2C(=O)CC(N3CCN(C/C=C/c4ccccc4)CC3)C2=O)cc1 (centres unmarked) [CBK261402] | 92.6% |
| O=C(NC(C(=O)O)C12CC3CC(CC(C3)C1)C2)c1ccc([N+](=O)[O-])cc1 (centres unmarked) [CBK261405] | 94.7% |
| O=C(NC(Nc1ncccn1)C(Cl)(Cl)Cl)c1ccccc1 (centres unmarked) [CBK261408] | 107% |
| O=C1N(Cc2cccc3ccccc23)c2ccccc2C1(c1ccc(O)cc1)c1ccc(O)cc1 [CBK261410] | 88.4% |
| CCOC(=O)CC(=O)Nc1c(Br)cc(Br)cc1C(=O)O [CBK261412] | 95.2% |
| NNC(=O)CCn1c2ccc(Cl)cc2c2cc(Cl)ccc21 [CBK261413] | 88.8% |
| O=C(O)CCn1c2ccc(Cl)cc2c2cc(Cl)ccc21 [CBK261415] | 89.5% |
| OC(Cn1cnc(-c2ccccc2)c1-c1ccccc1)Cn1c2ccccc2c2ccccc21 (centres unmarked) [CBK261416] | 78.2% |
| OC(CN(c1ccccc1)c1ccccc1)Cn1cnc2ccccc21 (centres unmarked) [CBK261417] | 86.8% |
| Cc1nc([N+](=O)[O-])c(N2CCN(C)CC2)n1Cc1ccccc1 [CBK261421] | 100% |
| O=C(O)C1CCCN1S(=O)(=O)c1ccc([N+](=O)[O-])cc1 (centres unmarked) [CBK261424] | 89.7% |
| O=C1NCCN/C1=C\C(=O)c1ccc(Br)cc1 [CBK261427] | 90.2% |
| O=[N+]([O-])c1ccc(-c2nc(-c3ccccc3)c(-c3ccc4oc5ccc(-c6[nH]c(-c7ccc([N+](=O)[O-])cc7)nc6-c6ccccc6)cc5c4c3)[nH]2)cc1 [CBK261434] | 93.9% |
| O=C(O)CCC/N=C1/CCCc2ccccc2N1 [CBK261435] | 104% |
| COc1nccnc1NS(=O)(=O)c1ccc(Nc2c([N+](=O)[O-])cc([N+](=O)[O-])c3nonc23)cc1 [CBK261441] | 87.5% |
| CCc1nnc(NS(=O)(=O)c2ccc(Nc3ccc([N+](=O)[O-])c4nonc34)cc2)s1 [CBK261442] | 92.3% |
| O=[N+]([O-])c1c(N(CCO)CCO)cc(Cl)c2nonc12 [CBK261446] | 92.5% |
| O=[N+]([O-])c1ccc(N(CCO)CCO)c2nonc12 [CBK261447] | 98.7% |
| Cc1nnc(NCCO)c2ccccc12 [CBK261448] | 112% |
| Cn1c2ccccc2c2cc(/C=C(/NC(=O)c3ccccc3)C(=O)Nc3cccc(O)c3)ccc21 [CBK261449] | 111% |
| O=C(Nc1cccc(Br)c1)/C(=C\c1cccnc1)NC(=O)c1ccccc1 [CBK261450] | 85.8% |

| SMILES | viability at 28.5 h, 10 µM |
| --- | --- |
| O=C(c1ccncc1)C12CN3CN(CN(C3)C1)C2 [CBK261451] | 97.6% |
| CCCCNS(=O)(=O)c1ccccc1[N+](=O)[O-] [CBK261456] | 93.1% |
| O=C(N/N=C/c1ccccc1O)c1cccc(C(=O)N/N=C/c2ccccc2O)n1 [CBK261459] | 111% |
| O=C(O)c1ccccc1C(=O)OCCN1CCOCC1 [CBK261462] | 85.4% |
| CCOC(=O)C(Cc1ccccc1)C(=O)Nc1ccc(Cl)cc1 (centres unmarked) [CBK261463] | 84.2% |
| CN1C2CCC1CC(OC(=O)CCN1CCCC1)C2 (centres unmarked) [CBK261466] | 95.3% |
| O=C1CCCN1C(=O)CN1CCOCC1 [CBK261467] | 117% |
| CCN(CC)CCNc1c(N)c(=O)oc2ccccc12 [CBK261469] | 91.7% |
| O=c1oc2ccccc2c2c1nnn2CCCN1CCOCC1 [CBK261470C] | 95.2% |
| CN(C)CCNc1c(N)c(=O)oc2ccccc12 [CBK261472] | 89.7% |
| O=C(N/N=C\c1ccccc1O)c1nc([N+](=O)[O-])n[nH]1 [CBK261475] | 99.8% |
| CC1(C)Cc2nc3[nH]nc(N)c3cc2CO1 [CBK261476] | 93.9% |
| CCC(=O)Nc1nc2ccccc2n1CCN1CCOCC1 [CBK261477] | 101% |
| Cc1n[nH]c(NNC(=O)COc2ccc(Cl)cc2)c1[N+](=O)[O-] [CBK261478] | 98.2% |
| O=C(O)c1ccc(/C=N/NC(=O)C2COc3ccccc3O2)cc1 (centres unmarked) [CBK261481] | 100% |
| Cc1[nH]c2ccccc2c1/C=N/NC(=O)C1COc2ccccc2O1 (centres unmarked) [CBK261482] | 90.9% |
| O=[N+]([O-])c1ccc2c(/C=N/c3ccc(-c4nc5ccccc5s4)cc3)c(O)ccc2c1 [CBK261483] | 92.3% |
| O=C(N/N=C/C1C=Nc2ccccc21)c1cc([N+](=O)[O-])cc([N+](=O)[O-])c1 (centres unmarked) [CBK261485] | 89.8% |
| O=[N+]([O-])c1ccc(/C=N/Nc2nnc3c(n2)[nH]c2ccccc23)cc1 [CBK261486] | 97.8% |
| O=C1C=C(c2ccc([N+](=O)[O-])cc2)Nc2nonc2N1 [CBK261487] | 89.4% |

Same assay, conditions: human, hela cells, % viability, bulk resorufin, single well

| SMILES | viability at 28.5 h, 10 µM |
| --- | --- |
| CCN(CC)CCNC(=O)CN1CCCC1=O [CBK261312] | 84.6% |
| CCOc1ccc(N2C(=O)NC(=O)/C(=C\NC(C)(CO)CO)C2=O)cc1 [CBK261437] | 99.5% |
| O=C1NC(=O)C(=NNc2ccc(S(=O)(=O)O)cc2)C(=O)N1 [CBK261439] | 88.7% |

Reference: paper PMC12040169 (PLOS Biology, 2025)
